Assay: Fatty acid composition in the livers of rats fed DHA-containing oil (Example 2)
Format: in vivo, Wistar rats
Conditions: rat liver, versus control group
Source text: Four-week-old male Wistar rats were initially raised for one week, and then divided into 2 groups described below.
perilla oil: safflower oil=7:3
rapeseed oil: DHA ethyl ester=3:2
For 4 weeks, the rats were fed experimental diets prepared by mixing 5% of the indicated oils for each of the groups to the basal feed.
The livers were excised from the raised rats of both groups, and lipids were extracted by the Folch method and upon conversion to the methyl ester, the amount of each fatty acid was analyzed by gas chromatography.

## CCC=CCC=CCC=CCC=CCC=CCC=CCCC(=O)O [DHA, 4,7, 10, 13, 16, 19-docosahexaenoic acid]
  effect on the proportion of ARA in the liver (in words): significant decrease in the proportion of ARA

Reference: patent US6596766B1, “Utilization of material containing docosapentaenoic acid” (Suntory Limited, priority 1999, dated 2003)
